According to a melting point compilation (Tetko et al.; mined from patent text by program, amines drawn as free bases though some values may be those of a salt):

| SMILES | melting point [°C] |
| --- | --- |
| COc1ccc(-c2cc(Sc3ccc([N+](=O)[O-])cc3[N+](=O)[O-])sc2-c2ccc(OC)cc2)cc1 | 143 to 145 |
| COc1cccc(C(=O)c2sc(NC(=O)c3ccncc3)nc2-c2ccco2)n1 | 247 to 250 |
| N#Cc1nc(Cl)c(Oc2ccccc2)nc1C#N | 115 to 118 |
| FC(F)(F)c1cccc(C2=CCN(CCc3ccc4cc[nH]c4c3)CC2)c1 | 168 to 169 |
| C[C@@H](O)CNc1c(-c2ccc(F)cc2)c(=O)c1=O | 235 to 237 |
| Cc1ccccc1-c1cc(Cl)ncc1C#N | 112 |
| CN1CC(=O)Nc2ccc(Br)cc2C1=O | 260 to 261 |
| CN(C)c1ccc(-c2cc3ncc(C#N)c(Cl)c3s2)cc1 | 270 to 272 |
| Cc1ccc(N2CCN(C)CC2)c2c1CC[C@@H](NC(=O)c1ccc(Cl)cc1)C2 | 210 to 212 |
| O=c1cc(OCC2CCCCC2)cc[nH]1 | 256 to 260 |
| COc1ccccc1CCC(C)(O)CC1CCCCN1 (stereo not given) | 115 to 116 |
| CCOC(=O)Cc1sc(NC(C)=O)nc1-c1ccc(Cl)cc1 | 187 to 188 |
| CC(C)(CO)Nc1nc(-c2ccccc2)nc2ccccc12 | 136 to 138 |
| CC(C(=O)O)c1ccc(N2CC3=C(CC=CC3)C2=O)cc1 (stereo not given) | 220 to 222 |
| CC(C)NCC(O)COc1ccc2cn[nH]c(=O)c2c1 (stereo not given) | 232 to 235 |
| CC(C)C(=O)c1cccn1N1C(=O)c2ccccc2C1=O | 147 to 149 |
| COc1cc2c(C)c(C#N)c(SC)nc2cc1OC(C)=O | 225 to 230 |
| Cc1c(Br)cccc1NCc1c(C(=O)O)sc2ccccc12 | 120 to 121 |
| CC(c1oc2ccccc2c(=O)c1-c1cccc(F)c1)n1nc(-c2ccc(O)cc2)c2c(N)ncnc21 (stereo not given) | 244 to 247 |
| CC(C)(C)OC(=O)N1CCC2(CC1)CC(c1ccc(C(C)(C)C)cc1)=NO2 | 172 to 173 |
| COc1ccc(-n2nnc(-c3ccc(Cl)cc3C(F)(F)F)c2N)cc1 | 159 to 160 |
| CCNc1c(C(=O)OCC)c(C)nc(N2CCN(C)CC2)c1[N+](=O)[O-] | 59 to 61 |
| O=C(O)Cc1c(C(=O)c2ccc(Cl)cc2)[nH]c2ccc(Cl)cc12 | 220 to 224 |
| O=C(NCP(=O)(O)c1ccccc1)c1ccccc1 | 158 to 160 |
| Fc1nc(NCc2cccnc2)c2nc[nH]c2n1 | 218 to 220 |

| SMILES | melting point [°C] |
| --- | --- |
| CC(C)Sc1cc2c(cc1Cl)N=C(c1ccncc1)NS2(=O)=O | 254 to 256 |
| CCCCC/C=C\C/C=C\C/C=C\C/C=C\CCCC(=O)N[C@@H](C)C(=O)N[C@H](CCC(=O)O)C(=O)O | 90 |
| CCNC(=S)Nc1cc(Cl)ccc1C | 120 to 122 |
| CC(C)C(=O)c1ccc2c(c1)CC(N1C(=O)c3ccccc3C1=O)C2 (stereo not given) | 138 to 140 |
| CCCCOc1ccc(C=CCCCC(=O)O)cc1 | 56 to 57 |
| COc1cc(OC)nc(Oc2cccc(Oc3nc(OC)cc(OC)n3)c2C)n1 | 140 |
| O=S1(=O)CCC(c2ccc(N3CCN(CC(O)(Cn4cncn4)c4ccc(F)cc4F)CC3)cc2)CN1 (stereo not given) | 165 to 167 |
| CC(C)CNC(=O)C(C)NC(=O)OCc1ccccc1 (stereo not given) | 109 to 111 |
| CCOC(=O)c1nsc(-c2ccc(C)cc2)n1 | 65 to 66.5 |
| CCOC(=O)c1cn(-c2cccs2)c2c(F)c(F)c(F)c(C)c2c1=O | 198 to 200 |
| CC(C)C(CN(C)c1ccccc1)NS(=O)(=O)c1c(Cl)cc(Cl)cc1Cl (stereo not given) | 169 to 170 |
| COc1ccc2[nH]c(C(C)=O)cc2c1 | 164 to 167 |
| Cn1ccnc1N1CCC(c2ccc([N+](=O)[O-])cc2)CC1 | 155 to 156 |
| CCc1nn2c(-c3ccc(Cl)cc3Cl)nc(C)nc2c1N(CC)CC | 98 to 99 |
| Cc1ccc(-c2c(-c3ccc(S(C)(=O)=O)cc3)[nH]c3ccccc23)cc1 | 197 to 198 |
| O=C(NCCSSCCNC(=O)c1ccc(OC(F)(F)F)cc1)c1ccc(OC(F)(F)F)cc1 | 150 to 151 |
| CC1(C)OC(C=Cc2ccc(F)cc2F)=CC1=O | 98.5 to 100 |
| Nc1cc(=O)[nH]c(=O)n1C1CCc2ccccc21 (stereo not given) | > 295 |
| O=C1C2=C(SCCN2)C2CSCCN12 (stereo not given) | 142 |
| COC1(c2cc(F)cc(Sc3ccc4c(c3)C=CC4=NO)c2)CCOCC1 | 124 to 136 |
| Cc1noc(C)c1-c1ccc(OC2SCC(O)C(O)C2O)c(F)c1 (stereo not given) | 140 |
| O=C(O)Cc1cc(C(=O)Cc2ccc(C(=O)O)cc2)ccc1O | > 260 |
| CN1CCc2c(Cl)ccc3c4c(n(c23)CC1)CCC4 | 138 to 140 |
| Cc1cccc(NC(=O)CN2CCN(c3ccccc3)CC2)c1 | 120 to 121 |
| N#CC(C#N)=Cc1ccc(O)c(O)c1 | 225 |

| SMILES | melting point [°C] |
| --- | --- |
| CCCOC(C)c1ccc(O)cc1 (single isomer, unassigned; (+)) | 61 to 63 |
| N#CNc1nc2ccccc2o1 | 175 |
| CC(C)(C)CCN(CCC(C)(C)C)[C@@H](CC(=O)O)C(=O)O | 197 to 198 |
| CS(=O)(=O)N(C(=O)c1ccccc1)c1cc2occc(=O)c2cc1Oc1ccccc1 | 164 to 166 |
| CSc1cccc(-c2ccccc2N)c1 | 114 to 115 |
| CCOC(=O)C1=C(C)NC(N=CN(C)C)=C(C(=O)OCC)C1c1ccccc1Cl (stereo not given) | 140 |
| CCN(CC)c1ccc(N=c2scc(-c3ccc(Cl)c(S(=O)(=O)N(C)C)c3)n2C)cc1 | 184 to 185 |
| C[C@]12C[C@H](c3ccc(OCCCCCS(=O)CCCC(F)(F)C(F)(F)F)cc3)[C@@H]3c4ccc(OC5CCCC5)cc4CC[C@H]3[C@@H]1CC[C@@H]2O (stereo not given in full) | 189 |
| COCCc1nc2c(N)nc3cc(OCc4cccnc4)ccc3c2n1CC(C)(C)O | 200 to 202 |
| COC(=O)C#CC(=O)c1ccc(SC)cc1 | 74 to 76 |
| Cc1ccc(S(=O)(=O)OCCOc2ccc(OC(F)(F)F)cc2)cc1 | 35 to 36 |
| NC(=NOCC1CC1)c1c(C(F)(F)F)ccc(C(F)(F)F)c1Cl | 75 to 80 |
| COC(=N)c1ncn(C2OC(CO)C(O)C2O)n1 (stereo not given) | 150 to 153 |
| CCCCCCCCCCOc1cc(OCCCOc2ccc(OCc3ccccc3)cc2)cc(C(=O)OC)c1 | 68 to 70 |
| Nc1nccc(-c2ccc(OCC(O)CN3CCN(c4cccc(Cl)c4)CC3)cc2)n1 (stereo not given) | 197 to 198 |
| COc1cc2c(c3c1OC(C)(C)C3)C(c1cccc(C(=O)Nc3c(Cl)cncc3Cl)c1)=NC(C)(C)C2 | 227 to 228 |
| Cc1ccc(C2c3c(C)c(N4CCN(c5ccccn5)CC4)c(C)c(C)c3OC2(C)C)cc1 (stereo not given) | 190 to 191 |
| Cc1ccc(-c2nc(COc3ccc(CCCn4ccnc4)cc3)co2)o1 | 109 to 110 |
| CCOCn1nccc1C(=O)c1ccc(OCC(=O)O)c(Cl)c1Cl | 148 to 149 |
| NS(=O)(=O)c1cc2c(s1)S(=O)(=O)CC(=S)N2 | 219 to 221 |
| N#Cc1ccc(OCc2cccnc2)cc1OC(C(=O)O)c1ccccc1 (racemic) | 201 to 202 |
| Cc1noc(NS(=O)(=O)c2sccc2-c2ccc3c(c2)OCO3)c1Br | 183 to 186 |
| COc1ccc(COc2cccc(C(=O)Nc3ccc(C#N)cc3)c2)cc1 | 147 to 148 |
| CCOC(=O)C1N=C(c2ccccc2)c2cc([N+](=O)[O-])ccc2NC1=O (stereo not given) | 271 |
| Cc1ccc2cccc(OCc3c(C)ccc(N(C)C(=O)CN4C(=O)c5ccccc5C4=O)c3C)c2n1 | 102 to 110 |

| SMILES | melting point [°C] |
| --- | --- |
| CCC(C)C(C)C(=O)Nc1ccc2ncn3c(=O)c(C(=O)O)cnc3c2c1 (stereo not given) | 286 to 288 |
| OC1(C#Cc2ccc(OCCOc3ccccc3)cc2)CN2CCC1CC2 (stereo not given) | 207 to 208 |
| O=C(O)CCCCCCc1ccc2ccccc2c1[N+](=O)[O-] | 84 to 89 |
| COc1cc(CCCCC2OC(=O)NC2=O)ccc1O (stereo not given) | 115 to 116 |
| C#CCON=Cc1c(C(=O)OC)[nH]c2c(C)ccc(C)c12 | 113 to 114 |
| CC(C)(C)C(=O)CN1C(=O)C(NC(=O)Nc2cccc(C(=O)NS(C)(=O)=O)c2)CN(c2ccccc2)c2ccccc21 (stereo not given) | 229 to 233 |
| CC(=O)OCC1OC(n2cc(C(Br)=CBr)c(=O)[nH]c2=O)CC1OC(C)=O (stereo not given) | 79 to 81 |
| FC(F)(F)c1nc(Cl)c2ccccc2n1 | 62 to 63.5 |
| CC(C)OC(=O)Nc1cc(-c2ccnc3c(C(=O)c4cccs4)cnn23)ccc1N(C)C | 164 to 165 |
| O=C(O)Cc1nn(Cc2nc3cc(O)cc(O)c3s2)c(=O)c2ccccc12 | 184 |
| CC(NC(=O)C1C(O)N(Cc2ccccc2)C(=O)N1Cc1ccccc1)c1cccs1 (stereo not given) | 108 to 129 |
| O=C1CCNC(=O)C1C(=O)c1ccc(C(F)(F)F)cc1 (stereo not given) | 197 to 200 |
| CCCCCCCCCCS(=O)(=O)NC(=O)c1cnc(C(N)=O)c(OC)c1 | 145 |
| N#Cc1cc(C(F)(F)F)nn1-c1ccc(NC(=O)c2ccncc2F)cc1 | 161 to 162 |
| COc1cccc(CC(=O)Nc2cc(Cl)c(Cl)cc2[N+](=O)[O-])c1 | 122 to 124 |
| COc1ccc([C@H]2c3[nH]c4ccccc4c3C[C@H]3C(=O)NC(=O)N23)cc1 (relative stereo) | 295 to 305 |
| CC1Cc2c([nH]c3ccccc23)-c2nc3c(c(=O)n21)CCCC3 (stereo not given) | 232 |
| COc1cc(C)ccc1OCc1ccccc1 | 38 to 39 |
| O=C1CCC(N2C(=O)c3cccc(CNC(=O)Nc4ccc(Cl)c(Cl)c4)c3C2=O)C(=O)N1 (stereo not given) | 241 to 243 |
| CCOc1ccc2nc(N)c3nc4n(c3c2c1)C(C)COC4 (stereo not given) | 187 to 188 |
| CC(=O)NCCC1Nc2ccccc2N2CCc3cccc1c32 (stereo not given) | 196 to 198 |
| CSc1ccc(C=C(C(=O)O)c2ccc(F)cc2)cc1 | 136 to 138 |
| CC(C)(O)c1cccc(Oc2cccc(-c3c(Cc4ccccc4)cnc4c(C(F)(F)F)cccc34)c2)c1 | < 80 |
| O=C(O)c1cn(C2CC2)c2cc(N3CCC4(C3)OCCO4)c(F)cc2c1=O | 229 to 230 |
| COc1ccccc1Nc1cccc2c1C(=O)N(C1CCC(=O)NC1=O)C2=O (stereo not given) | 223 to 225 |
